For orientation: TGI means the concentration at which net growth stops. High values mean lower sensitivity of the cells, low ones greater sensitivity of the cells.

The results in this text go back to PubChem BioAssay (NCI).

Common to all, as to experiment: DTP human tumour cell line panel, 48 h
Assay [1] has as its system 786-0 renal.
Assay [2] has as its system A498 renal.
The subject of assay [3] is A549 NSCLC.
For assay [4], the system named is DU-145 prostate.
For assay [5], the system named is HCT-116 colon.
In assay [6] the test system is NCI-H23 lung.
In assay [7] the test system is NCI-H522 lung.
Assay [8] relates to OVCAR-4 ovarian.
Assay [9] deals with SNB-19 CNS.
The test system of assay [10] is U251 CNS.
Assay [11] concerns CCRF-CEM leukemia.

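Five compound concentrations were applied to cells in 96-well plates for 48 hours; endpoints were derived by simple linear interpolation of the resulting dose-response curve. TGI marks complete inhibition of growth.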 Bounds are passed on as bounds.

With `CC(=O)Oc1ccc2cc(Oc3ccc(Cl)cc3)c(=O)oc2c1`, the TGI in [1] is greater than 100 µM; in [2] it was greater than 100 µM; in [3] it was 94 µM; in [4], greater than 100 µM; in assay [5] it was greater than 100 µM; in assay [6] it was greater than 100 µM. In addition, the TGI in assay [7] was 89.6 µM; in [8], greater than 100 µM; in assay [9], greater than 100 µM; in assay [10], greater than 100 µM.

`O=C1/C(=C/c2ccccc2S)N=C(c2ccccc2)N1c1ccc2c(c1)Sc1cc(N3C(=O)/C(=C/c4ccccc4S)N=C3c3ccccc3)ccc1N2`: the TGI amounted to 46.4 µM in assay [1]; 35.4 µM in [2]; 35 µM in assay [3]; 33.3 µM in assay [11]; 40.4 µM in [4]; 40.8 µM in assay [5]. Besides, the figures for the TGI in assay [8], in [9] and in [10] were 90.5 µM, 30.4 µM and 40.5 µM, respectively.

Take `COc1cc(C2SCC(=O)N2NC(=O)c2ccc(NC(C)=O)cc2)cc(OC)c1OC` (centres undefined): the TGI in assay [1], in assay [2], in assay [3], in assay [4], in assay [5] and in assay [6] was greater than 100 µM each time. For the same compound, the TGI in [8], in assay [9] and in assay [10] was greater than 100 µM each time.

On to `O=C1NC(=O)/C(=C\c2ccncc2)N1`, for which the TGI in assay [1], in assay [3], in assay [4], in [5], in assay [6] and in assay [8] was greater than 100 µM in each case. The TGI in assay [9] and in [10] was greater than 100 µM in each case.

On to `COc1ccc(Cn2nc(OCc3ccccn3)c3cc([N+](=O)[O-])ccc32)cc1`, for which the TGI in assay [1], in assay [2], in assay [3], in assay [11], in assay [4] and in assay [6] was greater than 100 µM each time. In addition, the TGI in assay [7] and in assay [9] was greater than 100 µM in each case.

For `O=C1CSC2(CC(/C=C/C=C/c3ccccc3)=NN2c2cccc(S(=O)(=O)O)c2)N1c1nc2ccccc2s1` (centres undefined), the TGI in assay [1] was greater than 100 µM; in [2] it was greater than 100 µM; in assay [3], greater than 100 µM; in [11], 58.4 µM; in assay [5], greater than 100 µM; in [6], greater than 100 µM. Moreover, the TGI was greater than 100 µM in assay [7], greater than 100 µM in assay [8], greater than 100 µM in assay [9] and 74.4 µM in [10].

With `Cc1ccc(S(=O)(=O)Nn2c(-c3ccccc3)c(C#N)c(-c3ccc([N+](=O)[O-])cc3)c(C#N)c2=O)cc1`, the concentration for total growth inhibition (TGI) in assay [1], in [2], in [3], in assay [11], in [5] and in assay [7] was greater than 100 µM throughout. Further, the TGI in assay [8], in assay [9] and in assay [10] was greater than 100 µM throughout.

In the case of `CN(C)c1ccc(/C=C(\NC(=O)c2ccccc2)C(=O)Nc2ccccc2C(=O)NN2C(=O)CSC2c2ccc(N(C)C)cc2)cc1` (centres undefined), the TGI in assay [1], in assay [2], in [3], in [11], in assay [4] and in assay [5] was greater than 100 µM throughout. The total growth inhibition concentration (TGI) in assay [6], in [7], in [9] and in assay [10] was greater than 100 µM in each case.

On to `Cc1ccc2ccccc2c1CC1S(=O)(=O)OCCOS1(=O)=O`, for which the TGI stood at 30.3 µM in assay [1]; 29.6 µM in assay [3]; 27.1 µM in [11]; 24.1 µM in [4]; 26 µM in assay [5]; 41 µM in [6]. Also, the TGI in assay [8] came to 23.6 µM; in [9], 25.9 µM; in [10] it was 24.7 µM.

In the case of `Cc1cnc(Cl)nc1C(C#N)c1nc2ccccc2n1C` (centres undefined), the TGI was greater than 100 µM in assay [1]; greater than 100 µM in assay [2]; greater than 100 µM in [3]; greater than 100 µM in [4]; 51.2 µM in [5]; greater than 100 µM in assay [6]. Further, the TGI in [7] is 43.4 µM; in [8], greater than 100 µM; in [9], greater than 100 µM; in assay [10] it was 45.5 µM.

For the compound `O=c1oc2ccccc2cc1-c1nc2ccc([N+](=O)[O-])cc2o1`, the concentration for total growth inhibition (TGI) in assay [1], in [2], in assay [3], in assay [11], in assay [4] and in assay [5] was greater than 100 µM each time. The TGI in assay [6] is greater than 100 µM; in assay [7] it was greater than 100 µM; in [9] it was 68.5 µM; in assay [10], greater than 100 µM.

With `Cc1cs/c(=N\C(P(=O)(O)O)P(=O)(O)O)n1C`, the TGI in assay [1], in assay [2], in [3], in [11], in assay [4] and in assay [5] was greater than 100 µM throughout. Also, the TGI in assay [6], in assay [7], in [9] and in assay [10] was greater than 100 µM in each case.

For `Cc1nc2c(n1Cc1ccc(Cl)cc1)C(=O)c1ccccc1C2=O`, the TGI in [1], in [3], in [11], in assay [5], in assay [6] and in assay [7] was greater than 75 µM throughout. Further, the TGI in assay [8], in assay [9] and in assay [10] was greater than 75 µM in each case.

On to `CC1(C)CC(=O)C(/C=N/c2nc(-c3ccc(Br)cc3)cs2)=C(O)C1`, for which the TGI in assay [1] is greater than 100 µM; in [3], greater than 100 µM; in assay [4] it was greater than 100 µM; in assay [5], greater than 100 µM; in assay [6], 83.9 µM; in assay [8], greater than 100 µM. Further, the TGI in [9] and in assay [10] was greater than 100 µM throughout.
